Tests used:
calicivirus diarrhea = experiment: Calicivirus diarrhea in breastfed infants by milk oligosaccharide level; format: in vivo, human; details: 93 nursing children consuming milk with high amounts; Poisson regression, P=0.012
Experimental: Milk samples were obtained weeks 2-5 postpartum from 93 Mexican mothers; the mothers and infants were followed from birth up to 2 yr postpartum. The clinical histories of the infants were recorded prospectively, and concentrations of individual oligosaccharides in these milk samples were measured. The most common oligosaccharides in maternal milk were those that were fucosylated, comprising 73% (50%-92%) of total oligosaccharide. Of these, 2′FL, the oligosaccharide homolog of the Lewis H-2 epitope, was the most common in the milks of all mothers. The mean concentration of 2′FL in milk was 3854±108 nmol/mL (34% of total fucosylated oligosaccharides), but varied greatly among mothers according to their Lewis blood group type.
Thus, human milk containing high levels of specific oligosaccharides are associated with decreased risk of pathogen-specific diarrhea and diarrhea overall. […] Because both the oligosaccharide and the high-molecular-weight glycans that share the same glycan epitope are synthesized by the same fucosyltransferase, the relationship between the oligosaccharide expression in milk and decreased risk in the infant reflects the synthetic capacity of the mother for both the free oligosaccharide and the homologous glycan. Specific human milk oligosaccharides protect breastfed children from disease by inhibiting binding of pathogens to the child's intestinal receptors.

Campylobacter jejuni = experiment: C. jejuni binding to CHO cells transfected with a human α(1,2)-fucosyltransferase gene; format: cell-based; details: CHO cells overexpressing H-2 antigen

Molecule | protection against calicivirus diarrhea (calicivirus diarrhea) | inhibition of C. jejuni binding to transfected CHO cells (Campylobacter jejuni)
CC(=O)N[C@H]1[C@H](O[C@H]2[C@@H](O)[C@@H](CO)O[C@@H](O[C@H]3[C@H](O)[C@@H](O)C(O)O[C@@H]3CO)[C@@H]2O)O[C@H](CO)[C@@H](O[C@@H]2O[C@@H](C)[C@@H](O)[C@@H](O)[C@@H]2O)[C@@H]1O[C@@H]1O[C@H](CO)[C@H](O)[C@H](O)[C@H]1O[C@@H]1O[C@@H](C)[C@@H](O)[C@@H](O)[C@@H]1O (some centres unmarked) [LDFH-I] | associated with protection | –
UEA I: ligand (lectin) that binds to H-2 (protein, UniProt P22972 1-243, looked up) Anti-H(O) lectin 1: SDDLSFKFKNFSQNGKDLSFQGDASVIETGVLQLNKVGNNLPDETGGIARYIAPIHIWNCNTGEVASFITSFSFFMETSANPKAATDGLTFFLAPPDSPLRRAGGYFGLFEDTKDNDSSYQTVAVEFDTIGSPVNFDDPGFPHIGIDVNRVKSINAERWNKRYGLNNVANVEIIYEASSKTLTASLTYPSDQTSISVTSIVDLKEILPEWVSVGFSGGTYIGRQATHEVLNWYFTSNLINTNS | – | inhibited

Source: US20100120701A1, “Compositions and Methods For Engineering Probiotic Yeast” (Glycosyn, Inc., priority 2008, published 2010)
